Test results taken from patent US11807644B2 (PMV Pharmaceuticals, Inc., priority 2020, dated 2023).

Molecular target: T1, recombinant His-tag Y220C p53 DBD protein (Homo sapiens, UniProt P04637, Y220C)
T1 construct: recombinant His-tag Y220C p53 DBD protein (amino acids #˜94-312)
Assay: In vitro DNA binding activity assay (TR-FRET): binding of His-tag Y220C p53 DBD to biotin-labeled consensus DNA
Assay type: biochemical
Details: SC150 = concentration to increase DNA binding by […], His-tag Y220C p53 DBD, biotin-labeled consensus DNA

Y220C SC150 (μM)	SMILES
* (* = 0 μM ≤ SC150 < 0.1 μM)	CN1CC[C@@H](Nc2cccc3c2cc(-c2noc(CNC(=O)c4ccn(C5CCCC5)c4)n2)n3CC(F)(F)F)[C@@H](F)C1 [Compound 319B, 1-cyclopentyl-N-{[3-(4-{[(3S,4R)-3-fluoro-1-methylpiperidin-4-yl]amino}-1-(2,2,2-trifluoroethyl)-1H-indol-2-yl)-1,2,4-oxadiazol-5-yl]methyl}-1H-pyrrole-3-carboxamide]
* (* = 0 μM ≤ SC150 < 0.1 μM)	CCN1CC[C@@H](Nc2cccc3c2cc(-c2noc(CNC(=O)c4ccn(C5CCCC5)c4)n2)n3CC(F)(F)F)[C@@H](F)C1 [Compound 320B, 1-cyclopentyl-N-{[3-(4-{[(3S,4R)-1-ethyl-3-fluoropiperidin-4-yl]amino}-1-(2,2,2-trifluoroethyl)-1H-indol-2-yl)-1,2,4-oxadiazol-5-yl]methyl}-1H-pyrrole-3-carboxamide]
* (* = 0 μM ≤ SC150 < 0.1 μM)	CN1CC[C@@H](Nc2cccc3c2cc(-c2noc(CNC(=O)c4cnn(C5CCOC5)c4)n2)n3CC(F)(F)F)[C@@H](F)C1 (stereo partly drawn) [Compound 321B, N-{[3-(4-{[(3S,4R)-3-fluoro-1-methylpiperidin-4-yl]amino}-1-(2,2,2-trifluoroethyl)-1H-indol-2-yl)-1,2,4-oxadiazol-5-yl]methyl}-1-(oxolan-3-yl)-1H-pyrazole-4-carboxamide]
* (* = 0 μM ≤ SC150 < 0.1 μM)	Cc1c(C(=O)NCc2nc(-c3cc4c(N[C@@H]5CCN(C)C[C@@H]5F)cccc4n3CC(F)(F)F)no2)cnn1C(C)(C)C [Compound 322B, 1-tert-butyl-N-{[3-(4-{[(3S,4R)-3-fluoro-1-methylpiperidin-4-yl]amino}-1-(2,2,2-trifluoroethyl)-1H-indol-2-yl)-1,2,4-oxadiazol-5-yl]methyl}-5-methyl-1H-pyrazole-4-carboxamide]
* (* = 0 μM ≤ SC150 < 0.1 μM)	CN1CC[C@@H](Nc2cccc3c2cc(-c2noc(CNC(=O)c4ccn(C5CCOC5)c4)n2)n3CC(F)(F)F)[C@@H](F)C1 (stereo partly drawn) [Compound 323B, N-{[3-(4-{[(3S,4R)-3-fluoro-1-methylpiperidin-4-yl]amino}-1-(2,2,2-trifluoroethyl)-1H-indol-2-yl)-1,2,4-oxadiazol-5-yl]methyl}-1-(oxolan-3-yl)-1H-pyrrole-3-carboxamide]
* (* = 0 μM ≤ SC150 < 0.1 μM)	CCN1CC[C@@H](Nc2cccc3c2cc(-c2noc(CNC(=O)c4ccn(C5CCOC5)c4)n2)n3CC(F)(F)F)[C@@H](F)C1 (stereo partly drawn) [Compound 324B, N-{[3-(4-{[(3S,4R)-1-ethyl-3-fluoropiperidin-4-yl]amino}-1-(2,2,2-trifluoroethyl)-1H-indol-2-yl)-1,2,4-oxadiazol-5-yl]methyl}-1-(oxolan-3-yl)-1H-pyrrole-3-carboxamide]
* (* = 0 μM ≤ SC150 < 0.1 μM)	CN1CC[C@@H](Nc2cccc3c2cc(-c2noc(CNC(=O)c4cnn(C5CCOCC5)c4)n2)n3CC(F)(F)F)[C@@H](F)C1 [Compound 325B, N-{[3-(4-{[(3S,4R)-3-fluoro-1-methylpiperidin-4-yl]amino}-1-(2,2,2-trifluoroethyl)-1H-indol-2-yl)-1,2,4-oxadiazol-5-yl]methyl}-1-(oxan-4-yl)-1H-pyrazole-4-carboxamide]
* (* = 0 μM ≤ SC150 < 0.1 μM)	CN1CC[C@@H](Nc2cccc3c2cc(-c2noc(CNC(=O)c4cnn(C5CCCCC5)c4)n2)n3CC(F)(F)F)[C@@H](F)C1 [Compound 326B, 1-cyclohexyl-N-{[3-(4-{[(3S,4R)-3-fluoro-1-methylpiperidin-4-yl]amino}-1-(2,2,2-trifluoroethyl)-1H-indol-2-yl)-1,2,4-oxadiazol-5-yl]methyl}-1H-pyrazole-4-carboxamide]
* (* = 0 μM ≤ SC150 < 0.1 μM)	CN1CC[C@@H](Nc2cccc3c2cc(-c2noc(CNC(=O)c4cn(C5CC5)cn4)n2)n3CC(F)(F)F)[C@@H](F)C1 [Compound 327B, 1-cyclopropyl-N-{[3-(4-{[(3S,4R)-3-fluoro-1-methylpiperidin-4-yl]amino}-1-(2,2,2-trifluoroethyl)-1H-indol-2-yl)-1,2,4-oxadiazol-5-yl]methyl}-1H-imidazole-4-carboxamide]
* (* = 0 μM ≤ SC150 < 0.1 μM)	CC(C)(C)n1ccc(C(=O)NCc2nc(-c3cc4c(NC5CCC(F)(F)CC5)cccc4n3CC(F)(F)F)no2)c1 [Compound 328B, 1-tert-butyl-N-[(3-{4-[(4,4-difluorocyclohexyl)amino]-1-(2,2,2-trifluoroethyl)-1H-indol-2-yl}-1,2,4-oxadiazol-5-yl)methyl]-1H-pyrrole-3-carboxamide]
* (* = 0 μM ≤ SC150 < 0.1 μM)	CC(C)(C)n1cnc(C(=O)NCc2nc(-c3cc4c(N[C@@H]5CCN(C6CC6)C[C@@H]5F)cccc4n3CC(F)(F)F)no2)c1 [Compound 329B]
* (* = 0 μM ≤ SC150 < 0.1 μM)	CC(C)(C)n1ccc(C(=O)NCc2nc(-c3cc4c(N[C@@H]5CCN(C6CC6)C[C@@H]5F)cccc4n3CC(F)(F)F)no2)c1 [Compound 330B, 1-tert-butyl-N-{[3-(4-{[(3S,4R)-1-cyclopropyl-3-fluoropiperidin-4-yl]amino}-1-(2,2,2-trifluoroethyl)-1H-indol-2-yl)-1,2,4-oxadiazol-5-yl]methyl}-1H-pyrrole-3-carboxamide]
* (* = 0 μM ≤ SC150 < 0.1 μM)	CC(C)(C)n1cc(C(=O)NCc2nc(-c3cc4c(N[C@@H]5CCCC[C@@H]5F)cccc4n3CC(F)(F)F)no2)cn1 [Compound 331B, 1-tert-butyl-N-{[3-(4-{[(1R,2S)-2-fluorocyclohexyl]amino}-1-(2,2,2-trifluoroethyl)-1H-indol-2-yl)-1,2,4-oxadiazol-5-yl]methyl}-1H-pyrazole-4-carboxamide]
* (* = 0 μM ≤ SC150 < 0.1 μM)	CC(C)(C)n1ccc(C(=O)NCc2nc(-c3cc4c(NC5CCn6nccc6C5)cccc4n3CC(F)(F)F)no2)c1 (stereo not shown) [Compound 332B, 1-tert-butyl-N-({3-[4-({4H,5H,6H,7H-pyrazolo[1,5-a]pyridin-5-yl}amino)-1-(2,2,2-trifluoroethyl)-1H-indol-2-yl]-1,2,4-oxadiazol-5-yl}methyl)-1H-pyrrole-3-carboxamide]
* (* = 0 μM ≤ SC150 < 0.1 μM)	CCN1CC[C@@H](Nc2cccc3c2cc(-c2noc(CNC(=O)c4ccn(C5CCOCC5)c4)n2)n3CC(F)(F)F)[C@@H](F)C1 [Compound 333B, N-{[3-(4-{[(3S,4R)-1-ethyl-3-fluoropiperidin-4-yl]amino}-1-(2,2,2-trifluoroethyl)-1H-indol-2-yl)-1,2,4-oxadiazol-5-yl]methyl}-1-(oxan-4-yl)-1H-pyrrole-3-carboxamide]
* (* = 0 μM ≤ SC150 < 0.1 μM)	CCN1CC[C@@H](Nc2cccc3c2cc(-c2noc(CNC(=O)c4cnn(C5CCOCC5)c4)n2)n3CC(F)(F)F)[C@@H](F)C1 [Compound 334B, N-{[3-(4-{[(3S,4R)-1-ethyl-3-fluoropiperidin-4-yl]amino)-1-(2,2,2-trifluoroethyl)-1H-indol-2-yl)-1,2,4-oxadiazol-5-yl]methyl}-1-(oxan-4-yl)-1H-pyrazole-4-carboxamide]
* (* = 0 μM ≤ SC150 < 0.1 μM)	CN1CC[C@@H](Nc2cccc3c2cc(-c2noc(CNC(=O)c4ccn(C5CCOCC5)c4)n2)n3CC(F)(F)F)[C@@H](F)C1 [Compound 335B, N-{[3-(4-{[(3S,4R)-3-fluoro-1-methylpiperidin-4-yl]amino}-1-(2,2,2-trifluoroethyl)-1H-indol-2-yl)-1,2,4-oxadiazol-5-yl]methyl}-1-(oxan-4-yl)-1H-pyrrole-3-carboxamide]
* (* = 0 μM ≤ SC150 < 0.1 μM)	COCCN1CC[C@@H](Nc2cccc3c2cc(-c2noc(CNC(=O)c4ccn(C(C)(C)C)c4)n2)n3CC(F)(F)F)[C@@H](F)C1 [Compound 337B, 1-tert-butyl-N-{[3-(4-{[(3S,4R)-3-fluoro-1-(2-methoxyethyl)piperidin-4-yl]amino}-1-(2,2,2-trifluoroethyl)-1H-indol-2-yl)-1,2,4-oxadiazol-5-yl]methyl}-1H-pyrrole-3-carboxamide]
* (* = 0 μM ≤ SC150 < 0.1 μM)	COCCN1CC[C@@H](Nc2cccc3c2cc(-c2noc(CNC(=O)c4cnn(C(C)(C)C)c4)n2)n3CC(F)(F)F)[C@@H](F)C1 [Compound 338B, 1-tert-butyl-N-{[3-(4-{[(3S,4R)-3-fluoro-1-(2-methoxyethyl)piperidin-4-yl]amino}-1-(2,2,2-trifluoroethyl)-1H-indol-2-yl)-1,2,4-oxadiazol-5-yl]methyl}-1H-pyrazole-4-carboxamide]
* (* = 0 μM ≤ SC150 < 0.1 μM)	CN1CC[C@@H](Nc2cccc3c2cc(-c2noc(CNC(=O)c4cnn(C5CCC(F)C5)c4)n2)n3CC(F)(F)F)[C@@H](F)C1 (stereo partly drawn) [Compound 339B, N-{[3-(4-{[(3S,4R)-3-fluoro-1-methylpiperidin-4-yl]amino}-1-(2,2,2-trifluoroethyl)-1H-indol-2-yl)-1,2,4-oxadiazol-5-yl]methyl}-1-(3-fluorocyclopentyl)-1H-pyrazole-4-carboxamide]
* (* = 0 μM ≤ SC150 < 0.1 μM)	CN1CC[C@@H](Nc2cccc3c2cc(-c2noc(CNC(=O)c4cn(C(C)(C)CF)cn4)n2)n3CC(F)(F)F)[C@@H](F)C1 [Compound 342B, N-{[3-(4-{[(3S,4R)-3-fluoro-1-methylpiperidin-4-yl]amino}-1-(2,2,2-trifluoroethyl)-1H-indol-2-yl)-1,2,4-oxadiazol-5-yl]methyl}-1-(1-fluoro-2-methylpropan-2-yl)-1H-imidazole-4-carboxamide]
* (* = 0 μM ≤ SC150 < 0.1 μM)	CC(C)(C)n1ccc(C(=O)NCc2nc(-c3cc4c(N[C@H]5CC[C@@H](F)CC5)cccc4n3CC(F)(F)F)no2)c1 [Compound 343B, 1-tert-butyl-N-{[3-(4-{[(1s,4s)-4-fluorocyclohexyl]amino}-1-(2,2,2-trifluoroethyl)-1H-indol-2-yl)-1,2,4-oxadiazol-5-yl]methyl}-1H-pyrrole-3-carboxamide]
